In patent publication US20020122830A1, “Method for the treatment of a soil containing soilborne pathogens” (priority 2000, published 2002):
Where two headings read alike, the source gives them in different places.

Tests used:
[1] = tested on: V. dahliae microsclerotia; assay: Viability of V. dahliae microsclerotia buried in amended soil (test tube bioassay); format: cell-based, Verticillium dahliae; details: for Ammonia level in soil coinciding with a rapid loss in the viability of microsclerotia: soil amended with MBM or SM
Experimental: The viability of V. dahliae microsclerotia retrieved from soil was determined using the following experimental model system. […] Microsclerotia suspended in crushed silica sand was added to a nylon pouch which was then buried in the soil or suspended in the head space of each tube. Water was added to each tube to bring soil moisture to 0.33 bar tension. The tubes were then loosely capped, and placed in the dark at 24° C. On each date of analysis, the nylon pouches were retrieved and an Anderson air sampler used to impact the pouch contents onto a medium (soil-pectate-tergitol) selective for growth of V. dahliae. […] The levels of NH3, NO2^− and NO3^− in soil were determined at each sample date. […] The slurry was once again mechanically disrupted and its pH determined. The slurry was centrifuged and supernatant analyzed for total (NH3+NH4^+), (NHO2+NO2^−) and NO3^− using an ion chromatograph.

[2] = tested on: V. dahliae MS; details: agar medium, germination recorded two weeks later
Experimental: NH3 was generated in SPT medium by addition of various concentrations of NH4Cl to the medium and varying the pH of the medium (7, 7.6, 8 and 8.5). Immediately following cooling and hardening of the medium, 25 microsclerotia per Petri dish were transferred individually with a needle and germination recorded two weeks later.
Various amountes of NH4Cl salt (to 0, 25, 50, 100 and 200 mM) was added to soil peclate medium (SPT) and the pH of the medium adjusted to 7.0, 7.6, 8.0 or 8.5 by addition of 5 M NaOH. For each level of NH4Cl and pH, three replicate dishes were poured. The agar was allowed to solidify for 2 hours and immediately thereafter 25 V. dahliae MS were individually transferred to each dish using a sterile hypodermic needle. The dishes were wrapped with Parafilm (American National Can, Neenah Wis.) to limit loss of NH3 by volatilization, and incubated for two weeks at 24° C. in the dark. The viability of V. dahliae MS was determined as percent of total MS forming colonies. The concentration of NH3 in medium was estimated as described below and ranged from 0 to 31 mM. The pH of medium after hardening and two weeks after incubation was tested using pH test strips (ColorpHast pH 5-10; EM Science, Gibbstown N.J.) and was within 0.5 units (limit of resolution of the test strips) of that set at the start.

[3] = tested on: V. dahliae MS; details: glycine buffer pH 8.6, exposure of four days
Experimental: Various concentrations of NH3 were generated in glycine or tricine buffer solution at pH 8.6 with NH4Cl or (NH4)2SO4 added. A 15 mL test tube was filled with appropriate buffer and NH4^+ solution, microsclerotia added, the tube capped, then placed in the dark at 24° C. and the tubes inverted daily to suspend the microsclerotia in solution. Microsclerotia survival was determined by emptying contents of the tube into a Buchner funnel, the microsclerotia being retained on Whatman #42 filter paper, rinsed with distilled water, transferred to SPT medium by placing the filter paper in contact with the agar medium and removed leaving the microsclerotia adhering to the medium.
The final volume was brought to 50 mL with the same glycine solution. Solutions were then sterilized by filtration through a 0.22 um pore size filter and 15 mL placed into three replicate sterile screw cap tubes (total capacity 15.5 mL) About 200 V. dahliae MS were immediately added to each tube and the tube closed and placed at 24° C. and in the dark. Tubes were inverted every 12 hours to mix and suspend V. dahliae MS in the solution. […] At 8 hours, 1 and 4 days, the contents of each tube was passed onto a Buchner funnel containing sterile filter paper (Whatman #42). […] The viability of V. dahliae MS was determined as the percentage of MS forming colonies out of 50 counted per replicate dish. […]

[4] = tested on: V. dahliae MS; details: sealer jars, 30 mL solution, four days, room temperature
Experimental: Exposure of V. dahliae MS to HNO2 gas was done using a similar procedure described above. To sealer jars (250 mL), 50 mL of a prepared solution of NaNO2 in citric acid solution was added. A V. dahliae MS bag was suspended in the atmosphere of the jar. The jar was sealed, and placed at 24° C. in the dark for 4 days. Thereafter the bags were retrieved and the viability of V. dahliae MS determined. This experiment was repeated and done in triplicate.
Various amounts of HNO2 in atmosphere were subjected to microsclerotia by suspending microsclerotia in sealer jars containing 30 mL of citric acid HNO2 buffer solution and incubated in the dark at room temperature for four days.

[5] = tested on: V. dahliae MS
Experimental: The germination of V. dahliae MS was determined using a setup similar to that described above for exposure of V. dahliae MS to NH3 in buffered solution. Exceptions being various amounts of 0.270 M NaNO2 stock solution were added (from 0 to 2.0 mL) to 40 mL of 0.02 M citric acid solution (set to pH 5.0 with NaOH (Perrin and Dempsey 1974)) and brought to 50 mL volume with the same citric acid solution. All experiments were done in triiplicate and repeated. Solutions were filter sterilized and 15 mL placed into sterile screw cap tubes (total capacity 15.5 mL). Immediately, V. dahliae MS were added to each tube, the tube closed, placed at 24° C. and in the dark and inverted twice daily. At 8 hours, 1 and 4 days, V. dahliae MS viability was determined. The concentration of HNO2 in solutions was estimated as described below. The effect of NO2^− on survival of V. dahliae MS was tested by adding various amounts of NaNO2 (0 to 53 mM NO2^−) to citric acid buffer and pH set to 4.0, 5.0 and 6.0. The effect of type of NO2^− salt on survival of V. dahliae MS was tested by adding KNO2 or NaCl instead of NaNO2 to citric acid buffer (set to pH 5.0). […]
Various concentrations of HNO2 were generated in citric acid buffer solution at pH 4.0, 5.0 or 6.0 with NaNO2 added. […] Microsclerotia survival was determined as described previously for NH3 in glycine buffer.

With N.O [NH4OH, ammonium hydroxide] as the compound, how does the “addition sufficient to induce levels of NH3 sufficient to kill microsclerotia” value ([1]; Thorndale or Beauseart soil, incubated four days (data not shown)) read?
Its value is “about 1800 mg NH4OH—N kg^−1”.

N [NH3, Ammonia] was tested. Which “NH3 concentration preventing germination of microsclerotia” value [2] did it give?
Its value is greater than 3 mM.

What about the “NH3 concentration preventing germination of microsclerotia” value [3] of the same compound?
The value was “greater than 5 mM”.

And the “NH3 accumulation consistently accompanied with a rapid decline in the viability of microsclerotia in soil” value ([1]; in soil)?
Its value is “greater than 10 mM”.

What about the “Ammonia level in soil coinciding with a rapid loss in the viability of microsclerotia” value [1] of the same compound?
The value was greater than 20 mM.

What about the “Ammonia level in soil coinciding with a rapid loss in the viability of microsclerotia” value ([1]; listed as Ammonia) of the same compound?
Its value is greater than 65 mg N kg^−1 soil.

Which results are given for N.N.O=S(=O)(O)O [(NH4)2SO4]?
kill of microsclerotia ([1]; 400 or 800 mg N kg^−1, air-dried Beauseart soil stored 1.5 years): failed to accumulate HNO2 and kill microsclerotia; kill of microsclerotia ([1]; 400 or 800 mg N kg^−1, recently collected Mackenzie soil): death of microsclerotia

What does the source list for O=NO [HNO2, nitrous acid]?
HNO2 solution concentration above which suspended microsclerotia died in atmosphere [4]: 0.10 mM; HNO2 concentration sufficient to kill all microsclerotia [5]: about 0.025 mM; calculated HNO2 concentration required to kill all microsclerotia [5]: above 0.10 mM
